Test results reported in patent US20220040115A1, “PHARMACEUTICAL COMPOSITIONS AND DELIVERY SYSTEMS FOR PREVENTION AND TREATMENT OF CANDIDIASIS” (INDIAN INSTITUTE OF TECHNOLOGY HYDERABAD, priority 2018, published 2022).

Legend:
Candida albicans [1] = experiment: Inhibition zone test of oil compositions on Candida albicans (Example 1); format: cell-based; parameters: unit not given here
Experimental: Different two-oil and three-oil compositions with varying ratios were prepared in order to check the performance of the oils for inhibition of Candida albicans. Fluconazole and saline were used as positive and negative controls, respectively.

Candida albicans [2] = experiment: Antifungal activity (zone of inhibition) of microcapsules and bacterial cellulose loaded microcapsules; format: cell-based
Excerpt: The anti-fungal activity of the microcapsules and cellulosic matrices were checked for inhibition of Candida albicans. The studies are depicted in FIG. 15, FIG. 16, FIG. 17 and FIG. 18.

SMILES	Inhibition zone diameter (Candida albicans [1]; volume 50 μL, 24 hrs)	Inhibition zone diameter (Candida albicans [1]; volume 100 μL, 24 hrs)	Inhibition zone diameter (Candida albicans [1]; volume 150 μL, 24 hrs)	Inhibition zone diameter (Candida albicans [1]; volume 200 μL, 24 hrs)	Inhibition zone diameter (Candida albicans [1]; 200 μg, time period 24 hrs)	Inhibition zone diameter (Candida albicans [1]; 200 μg, time period 48 hrs)	Inhibition zone diameter (Candida albicans [1]; 200 μg, time period 72 hrs)	Zone of inhibition (Candida albicans [2]; 24 hrs)	Zone of inhibition (Candida albicans [2]; 48 hrs)	Zone of inhibition (Candida albicans [2]; 72 hrs)
Cc1ccc(C(C)C)cc1O [Carvacrol, 5-Isopropyl-2-methylphenol]	3.2	3.8	4.5	5.1	–	–	–	–	–	–
C=CCc1ccc(O)c(OC)c1 [Eugenol, 2-Methoxy-4-(prop-2-en-1-yl) phenol]	2.0	3.5	4.1	4.3	–	–	–	–	–	–
OC(Cn1cncn1)(Cn1cncn1)c1ccc(F)cc1F [Fluconazole]	–	–	–	–	5.3	4.5	3.4	3.5 ± 0.1	1.8 ± 0.1	1.5 ± 0.1
Cc1ccc(C(C)C)c(O)c1 [Thymol, 2-isopropyl-5-methylphenol]	2.5	3.1	3.9	4.2	–	–	–	–	–	–
